Data from patent publication US20230117034A1, “PYRAZOLOTRIAZINES” (Bayer Aktiengesellschaft, priority 2019, published 2023).
Read-outs that look alike come from different tables or passages of the source.

Experiments:
[1] = system: MDA-MB-231, human breast cancer cells; assay: Proliferation assay MDA-MB-231 (crystal violet, 4 days); type: cell-based; conditions: MDA-MB-231 cells, median, read-out: Prolif-MDA MB-231, IC50-[mol/l] (median)
Outline: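 Following a 24 h attachment in 10% fetal calf serum medium, cells receive test substance over 0.01-10 µmol/L for 4 days. Dye retained by fixed cells is eluted and read at 595 nm; cell number change is referenced to day-0 and untreated wells.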

[2] = target: T1, CDK9/CycT1 (Homo sapiens, UniProt P50750); assay: CDK9/CycT1 high ATP kinase assay (TR-FRET, 2 mM ATP); type: biochemical; conditions: 2 mM ATP (high ATP); median; read-out: CDK9/CyclinT1, 2 mM ATP (high ATP), IC50 (median)
T1 construct: Recombinant full-length His-tagged human CDK9 and CycT1; purchased Life Technologies PV4131; host or cells: insect cells
Outline: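 Full-length His-tagged human CDK9/CycT1 (insect cell, ~0.5 μg/mL) preincubated 15 min at 22 °C with compound in Tris pH 8.0, MgCl2, DTT buffer before reaction with biotinylated peptide substrate at high ATP (2 mM).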

T1 sequence (P50750 whole entry): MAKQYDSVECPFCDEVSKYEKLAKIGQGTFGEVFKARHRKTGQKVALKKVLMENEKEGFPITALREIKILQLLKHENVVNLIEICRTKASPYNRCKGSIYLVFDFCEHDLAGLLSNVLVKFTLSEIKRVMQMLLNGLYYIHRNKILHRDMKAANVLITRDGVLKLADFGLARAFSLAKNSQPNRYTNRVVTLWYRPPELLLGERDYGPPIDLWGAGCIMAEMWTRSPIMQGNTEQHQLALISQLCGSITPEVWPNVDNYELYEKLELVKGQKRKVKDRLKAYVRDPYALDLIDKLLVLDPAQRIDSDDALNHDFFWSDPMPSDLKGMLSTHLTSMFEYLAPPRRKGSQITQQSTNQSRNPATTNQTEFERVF
T1 sequence (O60563 whole entry partner): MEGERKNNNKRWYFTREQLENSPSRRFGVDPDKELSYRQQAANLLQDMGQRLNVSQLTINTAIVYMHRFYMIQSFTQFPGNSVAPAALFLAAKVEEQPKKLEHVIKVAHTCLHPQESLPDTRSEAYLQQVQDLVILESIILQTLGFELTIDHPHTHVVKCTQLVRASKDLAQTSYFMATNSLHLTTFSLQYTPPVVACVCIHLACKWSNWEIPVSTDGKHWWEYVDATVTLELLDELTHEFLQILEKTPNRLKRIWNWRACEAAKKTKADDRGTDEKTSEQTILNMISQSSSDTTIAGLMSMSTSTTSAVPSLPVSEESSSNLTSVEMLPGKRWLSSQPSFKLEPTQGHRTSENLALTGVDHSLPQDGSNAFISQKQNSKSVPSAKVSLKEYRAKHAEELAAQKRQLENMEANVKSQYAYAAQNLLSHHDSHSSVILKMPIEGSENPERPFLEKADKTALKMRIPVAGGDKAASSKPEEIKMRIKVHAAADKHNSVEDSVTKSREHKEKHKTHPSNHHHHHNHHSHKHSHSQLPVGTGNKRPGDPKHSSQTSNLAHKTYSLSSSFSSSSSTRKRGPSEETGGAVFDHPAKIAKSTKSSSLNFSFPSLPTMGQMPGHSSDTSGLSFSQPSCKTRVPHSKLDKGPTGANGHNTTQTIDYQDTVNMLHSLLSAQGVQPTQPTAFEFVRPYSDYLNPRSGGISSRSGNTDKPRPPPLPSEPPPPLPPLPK

IC50 [2] [nM]	IC50 ([1]; Homo sapiens, MDA-MB-231, 96 h) [nM]	SMILES	IC50 [1] [nM]
> 20000	49.8	CC(C)c1cnn2c(NCc3ncc(-c4ccccc4)[nH]3)nc(N3CCN(C)CC3)nc12 [Example 31, 2-(4-methylpiperazin-1-yl)-N-[(5-phenyl-1H-imidazol-2-yl)methyl]-8-(propan-2-yl)pyrazolo[1,5-a][1,3,5]triazin-4-amine]	–
> 20000	–	Cc1ccnc2[nH]c(CNc3nc(N4CCN(C)CC4)nc4c(C(C)C)cnn34)nc12 [Example 32, N-[(7-methyl-3H-imidazo[4,5-b]pyridin-2-yl)methyl]-2-(4-methylpiperazin-1-yl)-8-(propan-2-yl)pyrazolo[1,5-a][1,3,5]triazin-4-amine]	–
> 20000	11.8	FC(F)(F)c1cnn2c(NCc3nc4cc(Cl)c(Cl)cc4[nH]3)nc(N3CCOCC3)nc12 [Example 332, N-[(5,6-dichloro-1H-benzimidazol-2-yl)methyl]-2-(morpholin-4-yl)-8-(trifluoromethyl)pyrazolo[1,5-a][1,3,5]triazin-4-amine]	–
16800	18.8	Brc1cnn2c(NCc3nc4ccccc4[nH]3)nc(N3CC4CCC3CO4)nc12 (stereo not shown) [Example 352, N-[(1H-benzimidazol-2-yl)methyl]-8-bromo-2-(2-oxa-5-azabicyclo[2.2.2]octan-5-yl)pyrazolo[1,5-a][1,3,5]triazin-4-amine]	–
13800	23.2	Fc1cccc2[nH]c(CNc3nc(N4CCOCC4)nc4c(Cl)cnn34)nc12 [Example 361, 8-chloro-N-[(4-fluoro-1H-benzimidazol-2-yl)methyl]-2-(morpholin-4-yl)pyrazolo[1,5-a][1,3,5]triazin-4-amine]	–
> 20000	33.5	CN1CCN(c2nc(NCc3nc4c(F)cccc4[nH]3)n3ncc(Cl)c3n2)CC1.O=CO [Example 362, formic acid 8-chloro-N-[(4-fluoro-1H-benzimidazol-2-yl)methyl]-2-(4-methylpiperazin-1-yl)pyrazolo[1,5-a][1,3,5]triazin-4-amine]	–
> 20000	118	CN(c1nc(NCc2nc3ccccc3[nH]2)n2ncc(Br)c2n1)[C@H]1C[C@H](O)C1 [Example 365, trans-3-[(4-{[(1H-benzimidazol-2-yl)methyl]amino}-8-bromopyrazolo[1,5-a][1,3,5]triazin-2-yl)(methyl)amino]cyclobutan-1-ol]	–
17600	84.1	CC[C@@H](CO)Nc1nc(NCc2nc3ccccc3[nH]2)n2ncc(Br)c2n1 [Example 367, (2S)-2-[(4-{[(1H-benzimidazol-2-yl)methyl]amino}-8-bromopyrazolo[1,5-a][1,3,5]triazin-2-yl)amino]butan-1-ol]	–
> 20000	173	CC[C@H](CO)Nc1nc(NCc2nc3ccccc3[nH]2)n2ncc(Br)c2n1 [Example 368, (2R)-2-[(4-{[(1H-benzimidazol-2-yl)methyl]amino}-8-bromopyrazolo[1,5-a][1,3,5]triazin-2-yl)amino]butan-1-ol]	–

Continued, compound first:

SMILES	IC50 [2] [nM]	IC50 ([1]; Homo sapiens, MDA-MB-231, 96 h) [nM]	IC50 [1] [nM]
Brc1cnn2c(NCc3nc4ccccc4[nH]3)nc(N3C[C@H]4CC[C@@H]3CN4)nc12 (single isomer, unassigned) [Example 335, N-[(1H-benzimidazol-2-yl)methyl]-8-bromo-2-{[1R or S-(1R*,4R*)]-2,5-diazabicyclo[2.2.2]octan-2-yl}pyrazolo[1,5-a][1,3,5]triazin-4-amine]	> 20000	–	10.5
Brc1cnn2c(NCc3nc4ccccc4[nH]3)nc(N3C[C@H]4CC[C@@H]3CO4)nc12 (single isomer, unassigned) [Example 383, N-[(1H-benzimidazol-2-yl)methyl]-8-bromo-2-{[1R or S-(1R*,4R*)]-2-oxa-5-azabicyclo[2.2.2]octan-5-yl}pyrazolo[1,5-a][1,3,5]triazin-4-amine]	> 20000	30	–
Brc1cnn2c(NCc3nc4ccccc4[nH]3)nc(N3C[C@H]4CC[C@@H]3CO4)nc12 (single isomer, unassigned; enantiomer 2) [Example 391, N-[(1H-benzimidazol-2-yl)methyl]-8-bromo-2-{[1R or S-(1R*,4R*)]-2-oxa-5-azabicyclo[2.2.2]octan-5-yl}pyrazolo[1,5-a][1,3,5]triazin-4-amine (Enantiomer 2)]	> 20000	–	26.1
CCNc1nc(NCc2nc(-c3ccc(C)cc3)c[nH]2)n2ncc(Br)c2n1 [Example 26, 8-bromo-N^2-ethyl-N^4-{[4-(4-methylphenyl)-1H-imidazol-2-yl]methyl}pyrazolo[1,5-a][1,3,5]triazine-2,4-diamine]	8740	–	–
Cc1cc2nc(CNc3nc(N4CCOCC4)nc4c(C5CC5)cnn34)[nH]c2cc1C [Example 320, 8-cyclopropyl-N-[(5,6-dimethyl-1H-benzimidazol-2-yl)methyl]-2-(morpholin-4-yl)pyrazolo[1,5-a][1,3,5]triazin-4-amine]	> 20000	4.17	–
FC(F)(F)c1ccc2[nH]c(CNc3nc(N4CCOCC4)nc4c(C5CC5)cnn34)nc2c1 [Example 322, 8-cyclopropyl-2-(morpholin-4-yl)-N-{[5-(trifluoromethyl)-1H-benzimidazol-2-yl]methyl}pyrazolo[1,5-a][1,3,5]triazin-4-amine]	> 20000	8.85	–
CN(CC(C)(C)O)c1nc(NCc2nc3cc(C(F)(F)F)ccc3[nH]2)n2ncc(C3CC3)c2n1 [Example 323, 1-{[8-cyclopropyl-4-({[5-(trifluoromethyl)-1H-benzimidazol-2-yl]methyl}amino)pyrazolo[1,5-a][1,3,5]triazin-2-yl](methyl)amino}-2-methylpropan-2-ol]	> 20000	8.76	–
Clc1cc2nc(CNc3nc(N4CC5CCC(C4)N5)nc4c(C5CC5)cnn34)[nH]c2cc1Cl [Example 324, 8-cyclopropyl-2-(3,8-diazabicyclo[3.2.1]octan-3-yl)-N-[(5,6-dichloro-1H-benzimidazol-2-yl)methyl]pyrazolo[1,5-a][1,3,5]triazin-4-amine]	12300	1.56	–
Fc1cc2nc(CNc3nc(N4C[C@H]5CC[C@@H](C4)N5)nc4c(C5CC5)cnn34)[nH]c2cc1Cl [Example 328, N-[(6-chloro-5-fluoro-1H-benzimidazol-2-yl)methyl]-8-cyclopropyl-2-[(1R,5S)-3,8-diazabicyclo[3.2.1]octan-3-yl]pyrazolo[1,5-a][1,3,5]triazin-4-amine]	15000	1.04	–
Clc1cc2nc(CNc3nc(N4CCOCC4)nc4c(Br)cnn34)[nH]c2cc1Cl [Example 329, 8-bromo-N-[(5,6-dichloro-1H-benzimidazol-2-yl)methyl]-2-(morpholin-4-yl)pyrazolo[1,5-a][1,3,5]triazin-4-amine]	13800	7.66	–
FC(F)(F)c1ccc2[nH]c(CNc3nc(N4CCOCC4)nc4c(Br)cnn34)nc2c1 [Example 339, 8-bromo-2-(morpholin-4-yl)-N-{[5-(trifluoromethyl)-1H-benzimidazol-2-yl]methyl}pyrazolo[1,5-a][1,3,5]triazin-4-amine]	13800	7.45	–
Brc1cnn2c(NCc3nc4ccccc4[nH]3)nc(N3CCN4CCC3C4)nc12 (stereo not shown) [Example 350, N-[(1H-benzimidazol-2-yl)methyl]-8-bromo-2-(1,4-diazabicyclo[3.2.1]octan-4-yl)pyrazolo[1,5-a][1,3,5]triazin-4-amine]	> 20000	13.7	–
Brc1cnn2c(NCc3nc4ccccc4[nH]3)nc(N3CC4CCC(C3)O4)nc12 [Example 351, N-[(1H-benzimidazol-2-yl)methyl]-8-bromo-2-(8-oxa-3-azabicyclo[3.2.1]octan-3-yl)pyrazolo[1,5-a][1,3,5]triazin-4-amine]	> 20000	93.9	–
CN1CCN(c2nc(NCc3nc4c(F)c(F)ccc4[nH]3)n3ncc(Cl)c3n2)CC1 [Example 358, 8-chloro-N-[(4,5-difluoro-1H-benzimidazol-2-yl)methyl]-2-(4-methylpiperazin-1-yl)pyrazolo[1,5-a][1,3,5]triazin-4-amine]	> 20000	14.8	–
CN(CC(C)(C)O)c1nc(NCc2nc3c(F)c(F)ccc3[nH]2)n2ncc(Cl)c2n1 [Example 359, 1-[(8-chloro-4-{[(4,5-difluoro-1H-benzimidazol-2-yl)methyl]amino}pyrazolo[1,5-a][1,3,5]triazin-2-yl)(methyl)amino]-2-methylpropan-2-ol]	7130	15.2	–
Fc1cccc2[nH]c(CNc3nc(N4CC5CCC(C4)N5)nc4c(Cl)cnn34)nc12 [Example 363, 8-chloro-2-(3,8-diazabicyclo[3.2.1]octan-3-yl)-N-[(4-fluoro-1H-benzimidazol-2-yl)methyl]pyrazolo[1,5-a][1,3,5]triazin-4-amine]	> 20000	34.6	–
CN(c1nc(NCc2nc3ccccc3[nH]2)n2ncc(Br)c2n1)[C@H]1C[C@@H](O)C1 [Example 364, cis-3-[(4-{[(1H-benzimidazol-2-yl)methyl]amino}-8-bromopyrazolo[1,5-a][1,3,5]triazin-2-yl)(methyl)amino]cyclobutan-1-ol]	> 20000	41.3	–
CN(CC(C)(C)O)c1nc(NCc2nc3c(F)cccc3[nH]2)n2ncc(Cl)c2n1 [Example 366, 1-[(8-chloro-4-{[(4-fluoro-1H-benzimidazol-2-yl)methyl]amino}pyrazolo[1,5-a][1,3,5]triazin-2-yl)(methyl)amino]-2-methylpropan-2-ol]	> 20000	57.1	–
